We go through one compound from PMC7044277 (Nature Communications, 2020).

Structures are written as SMILES. Where “and” joins values, the source holds several entries; their conditions need not be identical. Equal values may be shown once.

What all share (format): cell-based
The target in test [1] is T1, 320 non-olfactory GPCRs (Homo sapiens, UniProt P46663).
T1 construct: expressed in transfected cells; host or cells: HTLA cells

Test [2] deals with 320 non-olfactory GPCRs (Homo sapiens, UniProt P21728).
320 non-olfactory GPCRs (Homo sapiens, UniProt P21728), sequence (P21728 whole entry): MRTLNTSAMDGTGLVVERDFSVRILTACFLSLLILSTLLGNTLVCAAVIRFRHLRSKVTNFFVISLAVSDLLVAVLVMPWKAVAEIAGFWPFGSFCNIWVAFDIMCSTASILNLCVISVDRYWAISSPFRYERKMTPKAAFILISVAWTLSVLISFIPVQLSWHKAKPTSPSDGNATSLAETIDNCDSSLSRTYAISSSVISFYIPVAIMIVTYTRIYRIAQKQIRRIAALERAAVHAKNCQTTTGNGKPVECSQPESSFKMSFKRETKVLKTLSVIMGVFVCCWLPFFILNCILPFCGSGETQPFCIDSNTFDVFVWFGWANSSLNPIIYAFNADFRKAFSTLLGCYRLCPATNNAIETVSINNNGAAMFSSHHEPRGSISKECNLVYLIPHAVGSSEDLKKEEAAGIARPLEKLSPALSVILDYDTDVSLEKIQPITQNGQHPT
For test [3], the target named is T2, 320 non-olfactory GPCRs (Homo sapiens, UniProt P32248).
T2 construct: expressed in transfected cells; host or cells: HTLA cells
T2 sequence (P32248 25-378): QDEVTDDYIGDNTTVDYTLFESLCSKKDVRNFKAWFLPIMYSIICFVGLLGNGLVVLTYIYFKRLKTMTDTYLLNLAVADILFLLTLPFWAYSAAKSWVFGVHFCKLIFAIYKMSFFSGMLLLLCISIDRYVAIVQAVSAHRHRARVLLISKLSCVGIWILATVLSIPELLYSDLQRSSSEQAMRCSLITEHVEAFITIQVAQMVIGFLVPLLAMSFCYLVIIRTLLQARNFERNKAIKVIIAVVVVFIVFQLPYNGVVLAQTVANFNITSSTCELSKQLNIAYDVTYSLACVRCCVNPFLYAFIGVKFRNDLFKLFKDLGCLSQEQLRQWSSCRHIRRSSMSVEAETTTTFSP

The target of test [4] is 320 non-olfactory GPCRs (Homo sapiens, UniProt P30989). Conditions: receptor NTSR1; replicate values, Fig_4g.
320 non-olfactory GPCRs (Homo sapiens, UniProt P30989), sequence (P30989 whole entry): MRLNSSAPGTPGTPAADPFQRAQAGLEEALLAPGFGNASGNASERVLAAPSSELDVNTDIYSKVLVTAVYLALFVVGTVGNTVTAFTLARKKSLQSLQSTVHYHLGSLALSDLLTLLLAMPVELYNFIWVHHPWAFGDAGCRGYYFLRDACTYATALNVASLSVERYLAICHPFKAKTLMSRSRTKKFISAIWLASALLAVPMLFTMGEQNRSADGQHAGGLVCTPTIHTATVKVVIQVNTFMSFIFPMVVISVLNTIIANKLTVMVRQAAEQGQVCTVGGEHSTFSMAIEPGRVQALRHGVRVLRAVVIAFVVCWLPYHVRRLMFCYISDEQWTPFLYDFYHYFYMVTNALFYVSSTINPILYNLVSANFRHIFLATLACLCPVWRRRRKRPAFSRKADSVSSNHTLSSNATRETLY
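Throughout, for Fold of Basal: compound tested at 1 µM final concentration.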
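Throughout, for GPCRome agonism screen response: fold over basal response of each receptor without drug.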

T1 sequence (P46663 whole entry): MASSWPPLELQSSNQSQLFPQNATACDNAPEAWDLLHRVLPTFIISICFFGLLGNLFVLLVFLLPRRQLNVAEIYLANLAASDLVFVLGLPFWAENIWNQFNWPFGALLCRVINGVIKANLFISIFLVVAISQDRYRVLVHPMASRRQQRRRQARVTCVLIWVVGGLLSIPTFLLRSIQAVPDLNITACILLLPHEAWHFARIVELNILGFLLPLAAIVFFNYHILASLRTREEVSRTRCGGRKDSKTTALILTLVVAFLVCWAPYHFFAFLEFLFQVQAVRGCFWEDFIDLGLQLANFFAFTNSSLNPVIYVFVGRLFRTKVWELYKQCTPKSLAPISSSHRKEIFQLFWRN

On to `CCOc1cccc2cc(C(C)NCC3(O)CCCCC3)oc12` (stereo not shown) [O4LE6], for which the “Fold of Basal” value is 0.6703 and 0.866 and 0.6219 and 0.6427 on 320 non-olfactory GPCRs [1]; 0.7632 and 1.021 and 0.953 and 0.8141 at 320 non-olfactory GPCRs [2]; 1.25 and 0.8767 and 0.9045 and 1.727 at 320 non-olfactory GPCRs [3]. For the same compound, the “GPCRome agonism screen response” value at 320 non-olfactory GPCRs [4] is 0.7939 and 0.7425 and 1.49 and 2.039.
